The values that follow come from US20260108483A1, “METHODS AND COMPOSITIONS FOR PREVENTING THE PROGRESSION OF DIABETIC RETINOPATHY AND RELATED CONDITIONS” (Opus Genetics, Inc., priority 2023, published 2026).

This test has as its system diabetic retinopathy (moderately severe to severe NPDR or mild PDR). The test is described as follows: Phase 2 placebo-controlled clinical study: three or more step worsening in binocular Diabetic Retinopathy Severity Scale Score. The format is in vivo, human. The note with it: weeks 12 and 24; 600 mg/day oral (3+2 tablets of 120 mg) vs placebo. The source says: Ability of Compound 1 to prevent the progression of non-proliferative diabetic retinopathy (NPDR) and mild proliferative diabetic retinopathy (PDR) may be evaluated according to a clinical study in which Compound 1 was orally administered to patients suffering from non-proliferative diabetic retinopathy or mild proliferative diabetic retinopathy. Compound 1 has the chemical name (E)-2-((4,5-dimethoxy-2-methyl-3,6-dioxocyclohexa-1,4-dien-1-yl)methylene)undecanoic acid, and is depicted by the following chemical formula: The study was configured as a placebo-controlled, double-masked, randomized, Phase 2 study in approximately 100 subjects with moderately severe to severe NPDR (diabetic retinopathy severity score [DRSS] Level 47 or 53, see FIG. 1) or mild PDR (DRSS Level 61), evaluating safety and efficacy following administration of Compound 1 twice daily for 24 weeks. The study was configured for a 1:1 randomization (placebo: Compound 1). Randomization was stratified by level of disease severity (NPDR or PDR). Subjects with mild PDR were capped at 20% for each arm. Efficacy evaluations at 12 and/or 24 weeks included DRSS, center-involved diabetic macular edema (DME), moderate PDR or PDR-related adverse events (AEs), best-corrected visual acuity (BCVA), and central subfield thickness (CST). Further experimental procedures and results are described below. […]

For the compound `CCCCCCCCC/C(=C\C1=C(C)C(=O)C(OC)=C(OC)C1=O)C(=O)O` [Compound 1, (E)-2-((4,5-dimethoxy-2-methyl-3,6-dioxocyclohexa-1,4-dien-1-yl)methylene)undecanoic acid], the “preventing the progression of diabetic retinopathy (patients with three or more step worsening in binocular DRSS, FIG. 3)” value is given as “effective in preventing the progression of diabetic retinopathy”.
